The supplement of paper PMC10307832

Experiments:
Experiment in all cases: relative viability (nuclei count vs DMSO), 5 days (fraction); higher = more cells survive
LOU-NH91 = system: LOU-NH91
Procedure, shortened: (§1)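 Relative viability equals treated-well nuclei counts divided by vehicle-well nuclei counts. Counts came from 4× images of lung cancer cell lines grown in 1536-well plates for 5 days after pin-tool dosing on the day after seeding. Dosing used one drug alone or a fixed anchor-drug dose plus five library-drug doses (not always all listed) in √10 steps, and values are medians of duplicate plates.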

HARA = system: HARA
Procedure, shortened: as §1

NCI-H650 = system: NCI-H650
Procedure, shortened: as §1

NCI-H2126 = system: NCI-H2126
Procedure, shortened: as §1

NCI-H1666 = system: NCI-H1666
Procedure, shortened: as §1

NCI-H441 = system: NCI-H441
Procedure, shortened: as §1

NCI-H2347 = system: NCI-H2347
Procedure, shortened: as §1

NCI-H1993 = system: NCI-H1993
Procedure, shortened: as §1

NCI-H23 = system: NCI-H23
Procedure, shortened: as §1

NCI-H838 = system: NCI-H838
Procedure, shortened: as §1

201T = system: 201T
Procedure, shortened: as §1

NCI-H647 = system: NCI-H647
Procedure, shortened: as §1

NCI-H2023 = system: NCI-H2023
Procedure, shortened: as §1

BEN = system: BEN
Procedure, shortened: as §1

LCLC-103H = system: LCLC-103H
Procedure, shortened: as §1

NCI-H727 = system: NCI-H727
Procedure, shortened: as §1

NCI-H1395 = system: NCI-H1395
Procedure, shortened: as §1

NCI-H2009 = system: NCI-H2009
Procedure, shortened: as §1

NCI-H3122 = system: NCI-H3122
Procedure, shortened: as §1

NCI-H596 = system: NCI-H596
Procedure, shortened: as §1

NCI-H2087 = system: NCI-H2087
Procedure, shortened: as §1

EMC-BAC-2 = system: EMC-BAC-2
Procedure, shortened: as §1

NCI-H522 = system: NCI-H522
Procedure, shortened: as §1

With `Clc1ccc(Nc2nnc(Cc3ccncc3)c3ccccc23)cc1` [Vatalanib] + Cc1nc(Nc2ncc(C(=O)Nc3c(C)cccc3Cl)s2)cc(N2CCN(CCO)CC2)n1 [Dasatinib] (partner 0.075 µM) the relative viability (LOU-NH91; first compound 0.04 µM) was 0.563, the relative viability (LOU-NH91; first compound 0.1265 µM) was 0.534 and the relative viability (LOU-NH91; first compound 1.265 µM) was 0.514. The relative viability (LOU-NH91; first compound 4 µM) was 0.509, the relative viability (HARA; first compound 0.04 µM) was 0.265 and the relative viability (HARA; first compound 0.1265 µM) was 0.214. For the same compound, the relative viability (HARA; first compound 0.4 µM) was 0.284, the relative viability (HARA; first compound 1.265 µM) was 0.212 and the relative viability (HARA; first compound 4 µM) was 0.248. For the same compound, the relative viability (NCI-H650; first compound 0.04 µM) was 0.434, the relative viability (NCI-H650; first compound 0.1265 µM) was 0.448 and the relative viability (NCI-H650; first compound 1.265 µM) was 0.399. The relative viability (NCI-H650; first compound 4 µM) was 0.434, the relative viability (NCI-H2126; first compound 0.04 µM) was 0.609 and the relative viability (NCI-H2126; first compound 0.1265 µM) was 0.571. It also gave a relative viability (NCI-H2126; first compound 0.4 µM) of 0.585, a relative viability (NCI-H2126; first compound 1.265 µM) of 0.42 and a relative viability (NCI-H2126; first compound 4 µM) of 0.503. The relative viability (NCI-H1666; first compound 0.04 µM) was 0.805, the relative viability (NCI-H1666; first compound 0.1265 µM) was 0.714 and the relative viability (NCI-H1666; first compound 0.4 µM) was 0.883. For the same compound, the relative viability (NCI-H1666; first compound 1.265 µM) was 0.791, the relative viability (NCI-H1666; first compound 4 µM) was 0.758 and the relative viability (NCI-H441; first compound 0.04 µM) was 0.634. The relative viability (NCI-H441; first compound 0.1265 µM) was 0.627, the relative viability (NCI-H441; first compound 0.4 µM) was 0.573 and the relative viability (NCI-H441; first compound 1.265 µM) was 0.605. For the same compound, the relative viability (NCI-H441; first compound 4 µM) was 0.551, the relative viability (NCI-H2347; first compound 0.04 µM) was 0.295 and the relative viability (NCI-H2347; first compound 0.1265 µM) was 0.352. The relative viability (NCI-H2347; first compound 0.4 µM) was 0.342, the relative viability (NCI-H2347; first compound 1.265 µM) was 0.28 and the relative viability (NCI-H2347; first compound 4 µM) was 0.385. For the same compound, the relative viability (NCI-H1993; first compound 0.04 µM) was 0.727, the relative viability (NCI-H1993; first compound 0.1265 µM) was 0.651 and the relative viability (NCI-H1993; first compound 0.4 µM) was 0.574. For the same compound, the relative viability (NCI-H1993; first compound 1.265 µM) was 0.552, the relative viability (NCI-H1993; first compound 4 µM) was 0.578 and the relative viability (NCI-H23; first compound 0.04 µM) was 0.792. It also gave a relative viability (NCI-H23; first compound 0.1265 µM) of 0.73, a relative viability (NCI-H23; first compound 0.4 µM) of 0.929 and a relative viability (NCI-H23; first compound 1.265 µM) of 0.772. The relative viability (NCI-H23; first compound 4 µM) was 0.667, the relative viability (NCI-H838; first compound 0.04 µM) was 0.325 and the relative viability (NCI-H838; first compound 0.1265 µM) was 0.277. It also gave a relative viability (NCI-H838; first compound 0.4 µM) of 0.292, a relative viability (NCI-H838; first compound 1.265 µM) of 0.275 and a relative viability (NCI-H838; first compound 4 µM) of 0.273. For the same compound, the relative viability (201T; first compound 0.04 µM) was 0.576, the relative viability (201T; first compound 0.1265 µM) was 0.564 and the relative viability (201T; first compound 0.4 µM) was 0.594. It also gave a relative viability (201T; first compound 1.265 µM) of 0.555, a relative viability (201T; first compound 4 µM) of 0.579 and a relative viability (NCI-H647; first compound 0.04 µM) of 0.205. For the same compound, the relative viability (NCI-H647; first compound 0.1265 µM) was 0.184, the relative viability (NCI-H647; first compound 0.4 µM) was 0.212 and the relative viability (NCI-H647; first compound 1.265 µM) was 0.191. It also gave a relative viability (NCI-H647; first compound 4 µM) of 0.148, a relative viability (NCI-H2023; first compound 0.04 µM) of 0.671 and a relative viability (NCI-H2023; first compound 0.1265 µM) of 0.563. It also gave a relative viability (NCI-H2023; first compound 0.4 µM) of 0.653, a relative viability (NCI-H2023; first compound 1.265 µM) of 0.484 and a relative viability (NCI-H2023; first compound 4 µM) of 0.482. The relative viability (BEN; first compound 0.04 µM) was 0.308, the relative viability (BEN; first compound 0.1265 µM) was 0.271 and the relative viability (BEN; first compound 0.4 µM) was 0.315. For the same compound, the relative viability (BEN; first compound 1.265 µM) was 0.29, the relative viability (BEN; first compound 4 µM) was 0.342 and the relative viability (LCLC-103H; first compound 0.04 µM) was 0.428. For the same compound, the relative viability (LCLC-103H; first compound 0.1265 µM) was 0.462, the relative viability (LCLC-103H; first compound 0.4 µM) was 0.543 and the relative viability (LCLC-103H; first compound 1.265 µM) was 0.484. It also gave a relative viability (LCLC-103H; first compound 4 µM) of 0.396, a relative viability (NCI-H727; first compound 0.04 µM) of 0.339 and a relative viability (NCI-H727; first compound 0.1265 µM) of 0.37. It also gave a relative viability (NCI-H727; first compound 0.4 µM) of 0.326, a relative viability (NCI-H727; first compound 1.265 µM) of 0.41 and a relative viability (NCI-H727; first compound 4 µM) of 0.425. The relative viability (NCI-H1395; first compound 0.04 µM) was 0.456, the relative viability (NCI-H1395; first compound 0.1265 µM) was 0.392 and the relative viability (NCI-H1395; first compound 0.4 µM) was 0.384. It also gave a relative viability (NCI-H1395; first compound 1.265 µM) of 0.389, a relative viability (NCI-H1395; first compound 4 µM) of 0.407 and a relative viability (NCI-H2009; first compound 0.04 µM) of 0.288. For the same compound, the relative viability (NCI-H2009; first compound 0.1265 µM) was 0.256, the relative viability (NCI-H2009; first compound 0.4 µM) was 0.35 and the relative viability (NCI-H2009; first compound 1.265 µM) was 0.303. The relative viability (NCI-H2009; first compound 4 µM) was 0.283, the relative viability (NCI-H3122; first compound 0.04 µM) was 0.986 and the relative viability (NCI-H3122; first compound 0.1265 µM) was 0.838. For the same compound, the relative viability (NCI-H3122; first compound 0.4 µM) was 0.795, the relative viability (NCI-H3122; first compound 1.265 µM) was 0.768 and the relative viability (NCI-H3122; first compound 4 µM) was 0.787. The relative viability (NCI-H596; first compound 0.04 µM) was 0.643, the relative viability (NCI-H596; first compound 0.1265 µM) was 0.652 and the relative viability (NCI-H596; first compound 0.4 µM) was 0.637. For the same compound, the relative viability (NCI-H596; first compound 1.265 µM) was 0.518, the relative viability (NCI-H596; first compound 4 µM) was 0.592 and the relative viability (NCI-H2087; first compound 0.04 µM) was 0.937. It also gave a relative viability (NCI-H2087; first compound 0.1265 µM) of 0.769, a relative viability (NCI-H2087; first compound 0.4 µM) of 1.09 and a relative viability (NCI-H2087; first compound 1.265 µM) of 0.808. It also gave a relative viability (NCI-H2087; first compound 4 µM) of 0.884, a relative viability (EMC-BAC-2; first compound 0.04 µM) of 0.329 and a relative viability (EMC-BAC-2; first compound 0.1265 µM) of 0.31. It also gave a relative viability (EMC-BAC-2; first compound 0.4 µM) of 0.355, a relative viability (EMC-BAC-2; first compound 1.265 µM) of 0.306 and a relative viability (EMC-BAC-2; first compound 4 µM) of 0.331. The relative viability (NCI-H522; first compound 0.04 µM) was 0.843, the relative viability (NCI-H522; first compound 0.1265 µM) was 0.857 and the relative viability (NCI-H522; first compound 0.4 µM) was 0.912. It also gave a relative viability (NCI-H522; first compound 1.265 µM) of 1.04 and a relative viability (NCI-H522; first compound 4 µM) of 0.828.
